Assay results as given in patent publication US20060117411A1, “Enhancing plant pathogen resistance via increasing BiP levels” (priority 1998, published 2006).

System: BiP gene expression
Assay: Leaf treatment of tobacco plants, Northern blot of BiP transcripts in treated (local) and untreated (systemic) leaves
Format: in vivo, Nicotiana tabacum
Conditions: after 3 and 8 hours; tunicamycin 0.02 mM
Excerpt: We have shown that treatment of tobacco plants with cell wall-degrading enzymes (CDE) leads to the rapid induction of β-1,3-glucanase and other PR genes, both locally and systemically (Vidal et al, 1997). […] We used a commercial preparation of fungal CDEs instead of custom made Erwinia-derived hydrolases to increase reproducibility. […] This induction was observed locally as well systemically with the same timing and intensity. β-1,3-glucanase transcript accumulation is detectable only after 4 hours of incubation and reaches its plateau after 8 hours as described previously (Vidal et al, 1997). Whereas BiP induction is transient, β-1,3-glucanase mRNA levels continue to be high after prolonged incubation times (24-48 hours). […] The signal involved in the systemic response of BiP gene expression must therefore be transported very rapidly from the local leaf to the distal leaves.
Even though BiP induction occurs prior to β-1,3 glucanase induction, we cannot rule out that other, as yet unidentified defence related proteins are induced more rapidly and perhaps before BiP in our experimental system. If this were the case, it would still be possible that the rapid induction of BiP is the result of a feedback mechanism due to ER stress resulting from the increased synthesis of proteins on the rough ER, the unfolded protein response (UPR). […]

tunicamycin
BiP mRNA levels in the treated leaf: strong increase
